{"source": "patent US7985567B2", "about": "“Host cells and methods for producing 3-methyl-2-buten-1-ol, 3-methyl-3-buten-1-ol, and 3-methyl-butan-1-ol” (The Regents of the University of California, priority 2007, dated 2011)", "test_system": "S. cerevisiae BY4741 cells", "test": "In vivo reduction of 3-methyl-2-butenol or 3-methyl-3-butenol to 3-methyl-butanol by yeast", "format": "cell-based, Saccharomyces cerevisiae", "conditions": "1 g/l substrate added after 48 hours, grown an additional 2 days; versus no substrate or 3-methyl-3-butenol; FIG. 3", "experimental": "To test the capability of yeast to catalyze the conversion of 3-methyl-2-butenol to isopentanol, 5 ml. of YPD medium with 2% glycerol, in a 100 ml culture tube, was inoculated with an overnight culture of freshly plated S. cerevisiae BY4741 cells to achieve a final absorbance of 0.5 at 600 nm (A600). The cultures were grown at 30° C. at 200 r.p.m. After 48 hours, either 3-methyl-2-butenol or 3-methyl-3-butenol (1 g/l) was added to the culture.\nCultures were sampled after addition of 3-methyl-2-butenol or 3-methyl-3-butenol and grown for an additional 2 days. The samples were collected by pelleting 1 ml of culture, and adding 150 μl of the supernatant to 750 μl of the extraction solvent (80:20 chloroform:methanol spiked with 50 mg l^−1 of butanol internal standard). The samples were vortexed for 15 minutes and centrifuged for 2 minutes at 5000 r.c.f. 450 μl of the organic layer was removed from each sample and transferred to a clean GC vial for analysis. The GC-MS data were collected in full-scan mode (m/z 50-300) using a Tr-Wax column (0.25 mm×30 m, 0.25 μm film thickness; Thermo Electron) on a PolarisQ GC-MS with TriPlusautosampler (Thermo Electron). The carrier flow was 1.2 ml min^−1, and the inlet temperature was set to 200° C. The oven program was as follows: 40° C. […] Samples were normalized using the butanol internal standard and quantified using authentic standards.", "data": [{"smiles": "CC(C)=CCO", "note": "[3-methyl-2-butenol, 3-methyl-2-buten-1-ol]", "values": [{"measurement": "isopentanol production by yeast grown in the presence of the alcohol substrate", "value": "significantly more isopentanol"}]}]}
